According to ChEMBL document CHEMBL1201862, “PubChem BioAssay data set” (2004):
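These data come from cells grown in 96-well plates and exposed to compound for 48 hours at five concentrations. At the GI50, growth is halved.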 Active and inactive are the calls of the source. No stated cut-off is given here; in the data, active = GI50 up to about 1.1 µM and inactive = higher.

Assays:
Experiment in all cases: NCI-60 cell line screen, 48 h
NCI-H522 = test system: NCI-H522
SK-MEL-2 = test system: SK-MEL-2
M14 = test system: M14
HOP-62 = test system: HOP-62
SF-539 = test system: SF-539
UO-31 = test system: UO-31
UACC-257 = test system: UACC-257
OVCAR-8 = test system: OVCAR-8
SW-620 = test system: SW-620
CCRF-CEM = test system: CCRF-CEM
HCT-15 = test system: HCT-15
NCI-H460 = test system: NCI-H460
SK-OV-3 = test system: SK-OV-3
Malme-3M = test system: Malme-3M
IGROV-1 = test system: IGROV-1
NCI-H226 = test system: NCI-H226
RXF 393 = test system: RXF 393

| Structure (SMILES) | GI50 (NCI-H522) | GI50 (SK-MEL-2) | GI50 (M14) | GI50 (HOP-62) | GI50 (SF-539) | GI50 (UO-31) | GI50 (UACC-257) | GI50 (OVCAR-8) | GI50 (SW-620) | GI50 (CCRF-CEM) | GI50 (HCT-15) [µM] | GI50 (NCI-H460) | GI50 (SK-OV-3) | GI50 (Malme-3M) | GI50 (IGROV-1) | GI50 (NCI-H226) | GI50 (RXF 393) |
| --- | --- | --- | --- | --- | --- | --- | --- | --- | --- | --- | --- | --- | --- | --- | --- | --- | --- |
| O=[N+]([O-])c1cccnc1S(=O)(=O)c1ccccc1 | 1.46 µM (inactive) | 16.2 µM (inactive) | 9.4 µM (inactive) | 17.3 µM (inactive) | 11.3 µM (inactive) | 6.52 µM (inactive) | 17.4 µM (inactive) | 13.8 µM (inactive) | 3.27 µM (inactive) | 4.21 µM (inactive) | 7.55 | 13.9 µM (inactive) | 20.5 µM (inactive) | 11.1 µM (inactive) | 8.13 µM (inactive) | 15.8 µM (inactive) | 1.99 µM (inactive) |
| CN(O)C(=O)Cc1ccccc1 | > 100 µM (inactive) | – | > 100 µM (inactive) | > 100 µM (inactive) | > 100 µM (inactive) | > 100 µM (inactive) | > 100 µM (inactive) | > 100 µM (inactive) | > 100 µM (inactive) | > 100 µM (inactive) | – | > 100 µM (inactive) | > 100 µM (inactive) | > 100 µM (inactive) | > 100 µM (inactive) | > 100 µM (inactive) | > 100 µM (inactive) |
| O=C(CC1=Nc2nnc(CCCCCCCc3nnc4n3C(=O)C(CC(=O)c3ccccc3)=N4)n2C1=O)c1ccccc1 | > 100 µM (inactive) | – | > 100 µM (inactive) | > 100 µM (inactive) | > 100 µM (inactive) | > 100 µM (inactive) | > 100 µM (inactive) | > 100 µM (inactive) | > 100 µM (inactive) | > 100 µM (inactive) | > 100 | > 100 µM (inactive) | > 100 µM (inactive) | > 100 µM (inactive) | > 100 µM (inactive) | > 100 µM (inactive) | > 100 µM (inactive) |
| COCOC1CCCC[C@@]1(OCCOCCO[C@@]1(c2ccccc2)CCCC[C@H]1OCOC)c1ccccc1 (stereo partly drawn) | > 100 µM (inactive) | > 100 µM (inactive) | 44.7 µM (inactive) | > 100 µM (inactive) | – | > 100 µM (inactive) | > 100 µM (inactive) | > 100 µM (inactive) | > 100 µM (inactive) | > 100 µM (inactive) | > 10 | > 100 µM (inactive) | 67.9 µM (inactive) | > 100 µM (inactive) | > 100 µM (inactive) | > 100 µM (inactive) | 23.1 µM (inactive) |
| COc1ccc([C@H]2c3cc4c(cc3OC(O)(CO)[C@H]2C(=O)O)OCO4)c(OC)c1.COc1ccc([C@H]2c3cc4c(cc3OC3(O)COC(=O)[C@@H]23)OCO4)c(OC)c1 (stereo partly drawn) | – | > 100 µM (inactive) | > 100 µM (inactive) | > 100 µM (inactive) | > 100 µM (inactive) | > 100 µM (inactive) | > 100 µM (inactive) | > 100 µM (inactive) | > 100 µM (inactive) | 37.3 µM (inactive) | 37.6 | > 100 µM (inactive) | > 100 µM (inactive) | > 100 µM (inactive) | > 100 µM (inactive) | > 100 µM (inactive) | > 100 µM (inactive) |
| C[n+]1c2ccccc2cc2c(CNC(CCCNC(=N)N)C(=O)O)cccc21 (stereo not drawn) | 1.4 µM (inactive) | 4.03 µM (inactive) | 3.31 µM (inactive) | 2.7 µM (inactive) | 1.23 µM (inactive) | 0.959 µM (active) | 0.638 µM (active) | 1.8 µM (inactive) | 0.378 µM (active) | 0.179 µM (active) | 0.394 | 1.9 µM (inactive) | 1.99 µM (inactive) | 2.05 µM (inactive) | 7.4 µM (inactive) | 3.05 µM (inactive) | 0.0458 µM (active) |
| OC1=CN=C(c2ccccc2)Oc2ccccc21 | – | > 100 µM (inactive) | > 100 µM (inactive) | 68.1 µM (inactive) | 19 µM (inactive) | > 100 µM (inactive) | > 100 µM (inactive) | > 100 µM (inactive) | > 100 µM (inactive) | > 100 µM (inactive) | > 100 | > 100 µM (inactive) | > 100 µM (inactive) | > 100 µM (inactive) | > 100 µM (inactive) | 33 µM (inactive) | > 100 µM (inactive) |
| CCOC(=O)C=C1CCN(C(=O)c2ccccc2)CC1 | – | < 0.01 µM (active) | > 100 µM (inactive) | > 100 µM (inactive) | > 100 µM (inactive) | > 100 µM (inactive) | > 100 µM (inactive) | > 100 µM (inactive) | > 100 µM (inactive) | > 100 µM (inactive) | > 100 | > 100 µM (inactive) | > 100 µM (inactive) | > 100 µM (inactive) | > 100 µM (inactive) | – | > 100 µM (inactive) |
| Cc1ccc(NC(=O)CSc2nnc(-c3ccc(/N=C\c4ccc(Cl)cc4)cc3)o2)cc1 | 34.3 µM (inactive) | > 100 µM (inactive) | > 100 µM (inactive) | > 100 µM (inactive) | – | > 100 µM (inactive) | > 100 µM (inactive) | > 100 µM (inactive) | > 100 µM (inactive) | > 100 µM (inactive) | > 100 | > 100 µM (inactive) | > 100 µM (inactive) | > 100 µM (inactive) | – | > 100 µM (inactive) | > 100 µM (inactive) |
| N/C(=N\O)N/N=C\c1ccc(O)c(O)c1O | 24.1 µM (inactive) | > 46 µM (inactive) | – | > 41.1 µM (inactive) | > 100 µM (inactive) | > 100 µM (inactive) | 63.7 µM (inactive) | 30.4 µM (inactive) | 19.7 µM (inactive) | 17.3 µM (inactive) | 19.2 | 17.1 µM (inactive) | > 100 µM (inactive) | > 100 µM (inactive) | 57 µM (inactive) | 39.1 µM (inactive) | 18.9 µM (inactive) |
| O=C(Nc1ccc2[nH]c3c(-c4ccccc4)nccc3c2c1)c1ccccc1[N+](=O)[O-] | – | 4.09 µM (inactive) | 2.99 µM (inactive) | – | 1.37 µM (inactive) | – | 4.11 µM (inactive) | 8.11 µM (inactive) | 5.06 µM (inactive) | 5.93 µM (inactive) | 1.53 | 3.45 µM (inactive) | – | 1.82 µM (inactive) | 5.4 µM (inactive) | 2.3 µM (inactive) | 1.83 µM (inactive) |
| CC(=O)OC1CCn2nnc(CO[Si](C)(C)C(C)(C)C)c21 (stereo not drawn) | > 100 µM (inactive) | > 100 µM (inactive) | > 100 µM (inactive) | – | > 100 µM (inactive) | > 100 µM (inactive) | > 100 µM (inactive) | > 100 µM (inactive) | > 100 µM (inactive) | – | > 100 | > 100 µM (inactive) | > 100 µM (inactive) | > 100 µM (inactive) | > 100 µM (inactive) | > 100 µM (inactive) | > 100 µM (inactive) |
| COC(=O)C(C)NP(=O)(N1CC1)N1CC1 (stereo not drawn) | > 100 µM (inactive) | > 100 µM (inactive) | 83 µM (inactive) | – | > 100 µM (inactive) | > 100 µM (inactive) | > 100 µM (inactive) | > 100 µM (inactive) | > 100 µM (inactive) | 47.6 µM (inactive) | > 100 | – | > 100 µM (inactive) | > 100 µM (inactive) | > 100 µM (inactive) | – | > 100 µM (inactive) |
| O=c1[nH]c(=O)n(C2CC(O)C(CO)O2)cc1C#Cc1ccc(F)cc1 (stereo not drawn) | > 100 µM (inactive) | > 100 µM (inactive) | > 100 µM (inactive) | > 100 µM (inactive) | > 100 µM (inactive) | > 100 µM (inactive) | > 100 µM (inactive) | > 100 µM (inactive) | > 100 µM (inactive) | > 100 µM (inactive) | > 100 | > 100 µM (inactive) | > 100 µM (inactive) | > 100 µM (inactive) | > 100 µM (inactive) | > 100 µM (inactive) | – |
| O=[N+]([O-])C=C(c1ccc(Cl)cc1)c1ccc(Cl)cc1 | 14.4 µM (inactive) | 29.2 µM (inactive) | 14.8 µM (inactive) | 18.6 µM (inactive) | 17 µM (inactive) | 14.2 µM (inactive) | 20.8 µM (inactive) | 17.6 µM (inactive) | 16.2 µM (inactive) | 22 µM (inactive) | 17.2 | 20.3 µM (inactive) | – | – | 28.1 µM (inactive) | 16.7 µM (inactive) | 18.7 µM (inactive) |
| C=C=C(CC)C(C(=O)OC)N(CC)CC (stereo not drawn) | > 100 µM (inactive) | – | > 100 µM (inactive) | > 100 µM (inactive) | > 100 µM (inactive) | > 100 µM (inactive) | > 100 µM (inactive) | > 100 µM (inactive) | > 100 µM (inactive) | > 100 µM (inactive) | – | > 100 µM (inactive) | > 100 µM (inactive) | > 100 µM (inactive) | > 100 µM (inactive) | > 100 µM (inactive) | > 100 µM (inactive) |
| O=C1OC(c2ccccc2)=N/C1=C\c1ccc2ccccc2c1 | > 100 µM (inactive) | > 100 µM (inactive) | > 100 µM (inactive) | – | > 100 µM (inactive) | > 100 µM (inactive) | > 100 µM (inactive) | > 100 µM (inactive) | > 100 µM (inactive) | > 100 µM (inactive) | > 100 | > 100 µM (inactive) | > 100 µM (inactive) | > 100 µM (inactive) | > 100 µM (inactive) | – | > 100 µM (inactive) |
| O=C1[C@@H]2C(c3ccncc3)=NO[C@@H]2C(=O)N1c1ccc(Cc2ccc(N3C(=O)[C@H]4C(c5ccncc5)=NO[C@H]4C3=O)cc2)cc1 | – | > 100 µM (inactive) | > 100 µM (inactive) | > 100 µM (inactive) | > 100 µM (inactive) | > 100 µM (inactive) | > 100 µM (inactive) | > 100 µM (inactive) | > 100 µM (inactive) | > 100 µM (inactive) | > 100 | > 100 µM (inactive) | > 100 µM (inactive) | 99.1 µM (inactive) | > 100 µM (inactive) | 73.8 µM (inactive) | > 100 µM (inactive) |
